1 molecule from patent US8080497B2, “Method of controlling the aquatic weed Hydrilla verticillata” (BASF SE, priority 2005, dated 2011) can be followed below.

This test has as its system Hydrilla verticillata. The experiment in a line: Greenhouse container test, static exposure of Hydrilla verticillata in water columns. The test is classed as in vivo. The settings on record: for Hydrilla Shoot Length: static exposure, 11 WAT, control 30.4 cm. The procedure:
To begin the experiment, PVC cylinders were filled and maintained with a volume of 4000 ml of dechlorinated water that was maintained at room temperature (24° C.). To each cylinder, an established Hydrilla verticillata plant (potted in sand mixture) was transferred into the water column. Hydrilla plants were selected for uniformity and length of shoot growth (approx 15 cm). Plants were allowed to equilibrate in the columns for 24 hrs prior to herbicide treatment. Experimental treatments included an untreated control, and imazamox at 50 and 100 ppb of actual acid equivalent of herbicide. Treatments were applied to water columns by the use of a pipette. Amount of herbicide applied was based on the total volume of the cylinders (4000 ml). After initial herbicide treatment, the water columns were gently stirred to ensure uniform distribution. Treatments were arranged as a completely random design with 3 replications. Each cylinder was considered the experimental unit. Greenhouse conditions were maintained at 24/18° C. (day/night) cycle for the duration of the experiment. Natural day length was supplemented with halogen lighting to provide a 14 h photoperiod. Water level in the cylinders was periodically checked and maintained at the 4000 ml level for the duration of the study. After 11 weeks of exposure, Hydrilla shoot lengths were measured to ascertain herbicide effects.

Turning to `COCc1cnc(C2=NC(C)(C(C)C)C(=O)N2)c(C(=O)O)c1` (racemic) [Imazamox, (RS)-2-(4-isopropyl-4-methyl-5-oxo-2-imidazolin-2-yl)-5-methoxymethylnicotinic acid], the “effect on the growth of Hydrilla” value (after the exposure period (11 weeks)) is on record as “significant effect”. Besides, the visual symptomology result (after the exposure period (11 weeks), intensity tended to be rate responsive) was “reduction in plant vigour, chlorosis and reduction of internodal length”. For the same molecule, the “Hydrilla Shoot Length” value reads like this: (rate 50 ppb) 18.5 cm; (rate 100 ppb) 12.3 cm.
